Ki data for one compound are collected here from ChEMBL document CHEMBL1137346, “Carbonic anhydrase inhibitors: clash with Ala65 as a means for designing inhibitors with low affinity for the ubiquitous isozyme II, exemplified by the crystal structure of the topiramate sulfamide analogue” (J Med Chem, 2006).

Targets include Carbonic anhydrase 4 (Homo sapiens, UniProt P22748); Carbonic anhydrase 7 (Homo sapiens, UniProt P43166); Carbonic anhydrase 13 (Mus musculus, UniProt Q9D6N1); Carbonic anhydrase 14 (Homo sapiens, UniProt Q9ULX7).
The target of experiment [1] is Carbonic anhydrase 5B, mitochondrial (Homo sapiens, UniProt Q9Y2D0).
Sequence of Carbonic anhydrase 5B, mitochondrial (Q9Y2D0 whole entry): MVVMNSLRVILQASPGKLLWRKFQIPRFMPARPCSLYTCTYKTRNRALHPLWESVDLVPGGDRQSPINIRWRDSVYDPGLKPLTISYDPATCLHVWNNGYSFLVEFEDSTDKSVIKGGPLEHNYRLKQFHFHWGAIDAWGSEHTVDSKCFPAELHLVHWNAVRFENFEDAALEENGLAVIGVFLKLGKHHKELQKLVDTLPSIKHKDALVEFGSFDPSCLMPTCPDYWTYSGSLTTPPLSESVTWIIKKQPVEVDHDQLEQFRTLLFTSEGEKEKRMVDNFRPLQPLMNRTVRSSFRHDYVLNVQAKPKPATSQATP
Experiment [2] addresses Carbonic anhydrase 5A, mitochondrial (Homo sapiens, UniProt P35218).

Sequence of Carbonic anhydrase 13 (Q9D6N1 whole entry): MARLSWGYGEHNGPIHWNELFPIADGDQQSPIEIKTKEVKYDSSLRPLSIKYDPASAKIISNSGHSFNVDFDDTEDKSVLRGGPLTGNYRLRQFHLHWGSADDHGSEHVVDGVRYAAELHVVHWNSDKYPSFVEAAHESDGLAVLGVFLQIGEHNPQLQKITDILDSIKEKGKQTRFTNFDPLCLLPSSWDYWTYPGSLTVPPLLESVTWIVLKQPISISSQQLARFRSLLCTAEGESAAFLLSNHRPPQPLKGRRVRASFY
Sequence of Carbonic anhydrase 4 (P22748 whole entry): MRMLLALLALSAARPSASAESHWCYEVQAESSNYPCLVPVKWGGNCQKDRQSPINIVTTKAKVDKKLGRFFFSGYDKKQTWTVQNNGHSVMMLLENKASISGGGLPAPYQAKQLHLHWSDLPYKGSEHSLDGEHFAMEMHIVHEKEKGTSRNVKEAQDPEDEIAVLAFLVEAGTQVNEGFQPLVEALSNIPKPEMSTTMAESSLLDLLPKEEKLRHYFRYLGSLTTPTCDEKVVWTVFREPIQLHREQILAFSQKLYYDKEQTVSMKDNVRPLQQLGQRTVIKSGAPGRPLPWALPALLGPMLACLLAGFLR
Sequence of Carbonic anhydrase 5A, mitochondrial (P35218 whole entry): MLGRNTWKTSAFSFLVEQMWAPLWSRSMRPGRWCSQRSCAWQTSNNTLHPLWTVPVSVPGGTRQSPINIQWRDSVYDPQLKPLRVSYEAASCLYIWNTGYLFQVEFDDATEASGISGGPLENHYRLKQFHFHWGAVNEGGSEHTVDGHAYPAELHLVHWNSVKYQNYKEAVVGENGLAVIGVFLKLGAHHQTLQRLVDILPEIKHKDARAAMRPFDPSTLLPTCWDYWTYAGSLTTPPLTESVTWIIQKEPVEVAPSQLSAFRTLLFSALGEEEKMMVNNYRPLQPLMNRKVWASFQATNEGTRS
Sequence of Carbonic anhydrase 14 (Q9ULX7 whole entry): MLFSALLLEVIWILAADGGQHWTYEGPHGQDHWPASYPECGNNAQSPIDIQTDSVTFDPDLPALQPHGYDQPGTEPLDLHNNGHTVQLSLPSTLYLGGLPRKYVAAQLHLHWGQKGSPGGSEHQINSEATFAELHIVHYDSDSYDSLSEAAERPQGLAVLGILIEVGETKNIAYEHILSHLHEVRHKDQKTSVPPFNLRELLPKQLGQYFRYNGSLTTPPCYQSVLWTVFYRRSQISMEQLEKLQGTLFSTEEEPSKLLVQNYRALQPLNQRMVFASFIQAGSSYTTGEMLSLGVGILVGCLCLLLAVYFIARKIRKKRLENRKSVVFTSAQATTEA
Sequence of Carbonic anhydrase 7 (P43166 whole entry): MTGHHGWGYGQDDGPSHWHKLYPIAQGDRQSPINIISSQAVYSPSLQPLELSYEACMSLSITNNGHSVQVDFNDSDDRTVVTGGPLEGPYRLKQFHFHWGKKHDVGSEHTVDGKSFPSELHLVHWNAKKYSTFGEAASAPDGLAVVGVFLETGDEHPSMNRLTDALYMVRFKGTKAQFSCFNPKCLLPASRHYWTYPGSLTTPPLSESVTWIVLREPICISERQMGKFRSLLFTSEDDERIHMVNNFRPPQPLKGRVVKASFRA

Turning to `CC1(C)O[C@@H]2[C@@H](CO[C@@]3(CNS(N)(=O)=O)OC(C)(C)O[C@@H]23)O1`, the Ki at Carbonic anhydrase 4 was 941 nM; at Carbonic anhydrase 7, 35 nM; on Carbonic anhydrase 13, 30 nM; in experiment [1], 21 nM; in experiment [2] it was 32 nM; on Carbonic anhydrase 14, 25 nM.

The Ki is the equilibrium dissociation constant of an inhibitor or competing ligand from its target.
